pIC50: −log10 of the molar value. “And” between values parts separate entries of the source, which are not always exact repeats. Identical values can stand only once. Like-named read-outs stand apart in the source and are kept apart here. Peptide text beside a SMILES is read from it.
How the values were obtained:
[1] = target: T1, rabbit B2R-green fluorescent protein (B2R-GFP) (Oryctolagus cuniculus, UniProt Q28642); assay: [3H]BK binding competition to B2R-GFP stably expressed in intact HEK 293 cells; settings: for IC50 for B2R-GFP relative to unlabeled BK (fold greater IC50 / lower affinity): [3H]BK binding competition, vs BK; for [3H]BK binding to B2R-GFP log(IC50) ± SE: log of IC50, 3 nM [3H]BK, 0 °C, with peptidase inhibitors incl. captopril, HEK 293 cells
T1 construct: expressed in transfected cells
T1 sequence (Q28642 1-367): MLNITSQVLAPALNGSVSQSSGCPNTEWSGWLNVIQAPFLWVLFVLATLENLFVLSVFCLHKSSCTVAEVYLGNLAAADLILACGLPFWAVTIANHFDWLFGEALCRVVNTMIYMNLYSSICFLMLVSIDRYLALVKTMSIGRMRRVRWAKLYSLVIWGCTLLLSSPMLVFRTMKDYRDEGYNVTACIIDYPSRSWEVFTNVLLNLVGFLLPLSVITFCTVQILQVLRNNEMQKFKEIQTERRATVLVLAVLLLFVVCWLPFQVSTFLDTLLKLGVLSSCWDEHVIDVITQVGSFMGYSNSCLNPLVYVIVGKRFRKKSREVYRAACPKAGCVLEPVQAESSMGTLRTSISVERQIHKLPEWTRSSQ
Method: (§1) Affinity for the B2R was evaluated using a radioligand binding competition assay performed at 0 °C in the presence of peptidase inhibitors that included captopril ([Houle et al., 2000]). […] Other HEK 293a cells that transiently expressed human recombinant ACE were used to perform a [^3H]enalaprilat binding assay as described ([Koumbadinga et al., 2010]; the peACE vector was a gift from Prof. P. Corvol, Paris, France).
(§2) Results are presented as mean ± SEM. Radioligand binding data were fitted by non-linear regression to a one-site competition equation using a least-square method (Prism 4.0, GraphPad Software Inc., San Diego, CA, USA) and IC50 values calculated from this procedure. The same computer program was used to draw concentration-effect curves (least square fitting of sigmoidal dose-response equation with variable slope) and to derive contractile EC50 values. The qualitative effect of treatments on the distribution of the B2R-GFP fluorescent protein (either located at the plasma membrane or submitted to internalization) was evaluated for each HEK 293 cell in large microphotographic records and proportion of affected cells were compared using the χ^2 statistics to determine drug effect on the subcellular receptor distribution.

[2] = target: T2, BK B2R (human umbilical vein rings) (Homo sapiens, UniProt P30411); assay: Human isolated umbilical vein contractility assay; type: cell-based; settings: for +Peptidase inhibitor log(EC50) ± SE / Control (DMSO vehicle) log(EC50) ± SE: log of contractile EC50; for Control (DMSO vehicle) log(EC50) ± SE: no peptidase inhibitor, paired tissues; for reduction of contractile potency by Plummer's inhibitor: Plummer's inhibitor vs control tissues; for decrease of apparent contractile potency by ACE blockade: enalaprilat 1 μM vs paired control tissues; for fold less potent than BK as contractile agent: control conditions, vs BK
T2 construct: from tissue; host or cells: human umbilical vein rings
T2 sequence (P30411 1-391): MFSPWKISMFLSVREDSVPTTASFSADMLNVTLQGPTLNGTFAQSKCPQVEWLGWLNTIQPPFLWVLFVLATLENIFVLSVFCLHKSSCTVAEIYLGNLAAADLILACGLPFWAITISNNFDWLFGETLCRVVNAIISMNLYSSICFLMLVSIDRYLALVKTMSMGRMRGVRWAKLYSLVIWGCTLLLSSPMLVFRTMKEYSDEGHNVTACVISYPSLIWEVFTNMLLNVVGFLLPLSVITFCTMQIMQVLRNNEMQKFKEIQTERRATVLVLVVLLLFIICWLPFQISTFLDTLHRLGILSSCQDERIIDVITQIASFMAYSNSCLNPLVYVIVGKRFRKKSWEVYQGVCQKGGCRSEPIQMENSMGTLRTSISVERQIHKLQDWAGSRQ
Text: The institutional research ethics board (CHU de Québec) approved the anonymous use of human umbilical cord segments obtained after elective cesarean section deliveries. Informed consent was obtained from mothers. […] Tissues were used only once and discarded; controls curves were obtained from other vascular rings from the same vein.
as §2

human recombinant ACE = human recombinant ACE (Homo sapiens, UniProt P12821); assay: [3H]enalaprilat binding competition to recombinant ACE transiently expressed in HEK 293a cells; design: expressed in transfected cells; host or cells: HEK 293a cells, transient expression (peACE vector, gift from Prof. P. Corvol); settings: for fold lesser affinity vs. BK for ACE: [3H]enalaprilat binding competition; for [3H]enalaprilat binding to ACE log(IC50) ± SE: log of IC50, 2 nM [3H]enalaprilat, HEK 293a cells
human recombinant ACE, sequence (P12821 30-1306): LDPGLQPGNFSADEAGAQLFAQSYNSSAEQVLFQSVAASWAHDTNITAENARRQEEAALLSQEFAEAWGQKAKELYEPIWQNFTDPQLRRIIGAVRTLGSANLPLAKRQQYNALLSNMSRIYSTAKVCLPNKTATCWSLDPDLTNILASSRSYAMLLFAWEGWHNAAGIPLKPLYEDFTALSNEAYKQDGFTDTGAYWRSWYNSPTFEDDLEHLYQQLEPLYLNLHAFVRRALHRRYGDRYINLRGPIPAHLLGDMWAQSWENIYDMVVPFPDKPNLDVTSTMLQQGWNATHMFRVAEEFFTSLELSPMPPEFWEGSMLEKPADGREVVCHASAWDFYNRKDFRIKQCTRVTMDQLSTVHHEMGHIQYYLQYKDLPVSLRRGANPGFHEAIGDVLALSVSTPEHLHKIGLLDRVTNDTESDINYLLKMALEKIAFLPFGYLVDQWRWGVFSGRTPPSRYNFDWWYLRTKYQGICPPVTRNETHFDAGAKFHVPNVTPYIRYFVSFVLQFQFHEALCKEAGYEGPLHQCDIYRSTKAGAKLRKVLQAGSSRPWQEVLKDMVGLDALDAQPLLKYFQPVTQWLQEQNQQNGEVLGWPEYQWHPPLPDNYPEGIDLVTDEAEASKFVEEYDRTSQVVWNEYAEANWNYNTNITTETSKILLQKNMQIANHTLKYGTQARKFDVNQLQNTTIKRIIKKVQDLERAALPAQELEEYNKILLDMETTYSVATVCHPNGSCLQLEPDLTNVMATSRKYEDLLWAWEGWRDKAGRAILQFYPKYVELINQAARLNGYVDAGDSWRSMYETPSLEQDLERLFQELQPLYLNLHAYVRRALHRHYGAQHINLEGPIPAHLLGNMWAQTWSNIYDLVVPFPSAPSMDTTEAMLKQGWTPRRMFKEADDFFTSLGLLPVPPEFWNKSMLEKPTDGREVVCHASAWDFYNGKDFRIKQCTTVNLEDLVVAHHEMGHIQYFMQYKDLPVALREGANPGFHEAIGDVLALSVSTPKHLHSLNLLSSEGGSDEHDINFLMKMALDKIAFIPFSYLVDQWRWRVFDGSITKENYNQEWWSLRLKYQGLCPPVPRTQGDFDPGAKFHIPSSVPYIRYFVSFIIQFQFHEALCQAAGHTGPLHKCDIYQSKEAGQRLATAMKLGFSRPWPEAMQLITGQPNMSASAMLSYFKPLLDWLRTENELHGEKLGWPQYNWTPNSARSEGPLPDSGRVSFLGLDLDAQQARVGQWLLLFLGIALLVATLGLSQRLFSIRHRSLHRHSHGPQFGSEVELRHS
Method: as §1, §2

human B1R (B1R-FLAG) = target: T3, human B1R (B1R-FLAG) (Homo sapiens, UniProt P46663); assay: [3H]Lys-des-Arg9-BK binding competition to B1R-FLAG transiently expressed in HEK 293a cells; settings: for [3H]Lys-des-Arg9-BK binding to B1R-FLAG log(IC50) ± SE: log of IC50, 1 nM [3H]Lys-des-Arg9-BK, HEK 293a cells
T3 construct: FLAG; expressed in transfected cells
T3 sequence (P46663 1-353): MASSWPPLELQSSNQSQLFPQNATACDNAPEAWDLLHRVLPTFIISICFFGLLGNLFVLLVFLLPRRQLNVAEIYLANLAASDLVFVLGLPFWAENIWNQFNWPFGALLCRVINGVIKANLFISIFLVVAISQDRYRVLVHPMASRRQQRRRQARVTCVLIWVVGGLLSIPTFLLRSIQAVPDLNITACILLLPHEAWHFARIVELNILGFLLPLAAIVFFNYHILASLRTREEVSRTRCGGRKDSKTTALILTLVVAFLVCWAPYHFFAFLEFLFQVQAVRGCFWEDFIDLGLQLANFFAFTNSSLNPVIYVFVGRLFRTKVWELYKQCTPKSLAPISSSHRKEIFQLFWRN

[3] = enalaprilat 1 μM, 30 min before agonist

Row | IC50 for B2R-GFP relative to unlabeled BK (fold greater IC50 / lower affinity) [1] | [3H]BK binding to B2R-GFP log(IC50) ± SE [1] | Control (DMSO vehicle) log(EC50) ± SE [2] | fold lesser affinity vs. BK for ACE (human recombinant ACE) | [3H]enalaprilat binding to ACE log(IC50) ± SE (human recombinant ACE) | [3H]Lys-des-Arg9-BK binding to B1R-FLAG log(IC50) ± SE (human B1R (B1R-FLAG)) | fold less potent than BK as contractile agent [2] | +Peptidase inhibitor log(EC50) ± SE [2, 3] | SMILES | reduction of contractile potency by Plummer's inhibitor [2] | decrease of apparent contractile potency by ACE blockade [2] | also measured
1 |  | -5.11 ± 0.16 | -6.59 ± 0.07 | 2.23 fold | -5.46 ± 0.11 | >-5 | 14.1 fold | -5.55 ± 0.06 | C[C@H](NC(=O)[C@H](CCCNC(=N)N)NC(=O)[C@H](Cc1ccccc1)NC(=O)[C@@H]1CCCN1C(=O)[C@H](CO)NC(=O)[C@H](Cc1ccccc1)NC(=O)CNC(=O)[C@@H]1CCCN1C(=O)[C@@H]1CCCN1C(=O)[C@@H](N)CCCNC(=N)N)C(=O)N1CCC[C@H]1C(=O)O [BK-Ala-Pro] (H-RPPGFSPFRAP-OH; N-terminus and C-terminus assumed) |  |  | 
2 | 29 fold | -6.34 ± 0.11 | -6.67 ± 0.08 |  |  | -5.12 ± 0.10 |  |  | N=C(N)NCCC[C@H](NC(=O)[C@H](CCCNC(=N)N)NC(=O)[C@H](Cc1ccccc1)NC(=O)[C@@H]1CCCN1C(=O)[C@H](CO)NC(=O)[C@H](Cc1ccccc1)NC(=O)CNC(=O)[C@@H]1CCCN1C(=O)[C@@H]1CCCN1C(=O)[C@@H](N)CCCNC(=N)N)C(=O)O [BK-Arg] (H-RPPGFSPFRR-OH; N-terminus and C-terminus assumed) | 15 fold |  | pIC50 (human B1R (B1R-FLAG); competition of [3H]Lys-des-Arg9-BK binding, read-out: IC50 for recombinant human B1R): 5.12; +Peptidase inhibitor log(EC50) ± SE ([2]; Plummer's inhibitor 1 μM): -5.49 ± 0.07
3 | 363 fold | -5.24 ± 0.20 | -6.61 ± 0.11 | 3.33 fold | -5.28 ± 0.22 | >-5 | 13.5 fold | -5.34 ± 0.06 | CC(C)C[C@H](NC(=O)[C@H](Cc1c[nH]cn1)NC(=O)[C@H](CCCNC(=N)N)NC(=O)[C@H](Cc1ccccc1)NC(=O)[C@@H]1CCCN1C(=O)[C@H](CO)NC(=O)[C@H](Cc1ccccc1)NC(=O)CNC(=O)[C@@H]1CCCN1C(=O)[C@@H]1CCCN1C(=O)[C@@H](N)CCCNC(=N)N)C(=O)O [BK-His-Leu] (H-RPPGFSPFRHL-OH; N-terminus and C-terminus assumed) |  | 18 fold and 18.3 fold | 

More lines, now with the values behind:

Row | SMILES | IC50 for B2R-GFP relative to unlabeled BK (fold greater IC50 / lower affinity) [1] | [3H]BK binding to B2R-GFP log(IC50) ± SE [1] | Control (DMSO vehicle) log(EC50) ± SE [2] | fold lesser affinity vs. BK for ACE (human recombinant ACE) | [3H]enalaprilat binding to ACE log(IC50) ± SE (human recombinant ACE) | [3H]Lys-des-Arg9-BK binding to B1R-FLAG log(IC50) ± SE (human B1R (B1R-FLAG)) | fold less potent than BK as contractile agent [2] | +Peptidase inhibitor log(EC50) ± SE [2, 3] | reduction of contractile potency by Plummer's inhibitor [2] | decrease of apparent contractile potency by ACE blockade [2] | also measured
4 | N=C(N)NCCC[C@H](NC(=O)[C@H](Cc1ccccc1)NC(=O)[C@@H]1CCCN1C(=O)[C@H](CO)NC(=O)[C@H](Cc1ccccc1)NC(=O)CNC(=O)[C@@H]1CCCN1C(=O)[C@@H]1CCCN1C(=O)[C@H](CCCNC(=N)N)NC(=O)[C@@H]1CCCN1C(=O)[C@@H](N)CCCNC(=N)N)C(=O)O [Arg-Pro-BK] (H-RPRPPGFSPFR-OH; N-terminus and C-terminus assumed) | 1.6 fold | -7.61 ± 0.09 | -7.39 ± 0.06 |  |  |  |  |  |  |  | effect of DPP-IV inhibitor NVP-DPP728 on apparent contractile potency (in words) ([2]; NVP-DPP728 1 μM): did not show a loss of apparent potency; effect of aminopeptidase inhibitor amastatin on contractile effect (in words) ([2]; amastatin 3 μM): failed to modify; +Peptidase inhibitor log(EC50) ± SE ([2]; NVP-DPP728 1 μM): -7.29 ± 0.03; +Peptidase inhibitor log(EC50) ± SE ([2]; amastatin 3 μM): -7.35 ± 0.07
5 | N=C(N)NCCC[C@H](NC(=O)[C@H](Cc1ccccc1)NC(=O)[C@@H]1CCCN1C(=O)[C@H](CO)NC(=O)[C@H](Cc1ccccc1)NC(=O)CNC(=O)[C@@H]1CCCN1C(=O)[C@@H]1CCCN1C(=O)[C@@H](N)CCCNC(=N)N)C(=O)O [BK, Bradykinin, reference compound] (H-RPPGFSPFR-OH) |  |  |  |  |  |  |  |  | did not affect | not changed | 
6 | NC(N)=NCCC[C@H](NC(=O)[C@H](Cc1ccccc1)NC(=O)[C@@H]1CCCN1C(=O)[C@H](CO)NC(=O)[C@H](Cc1ccccc1)NC(=O)CNC(=O)[C@@H]1CCCN1C(=O)[C@@H]1CCCN1C(=O)[C@@H](N)CCCN=C(N)N)C(=O)O [BK, Bradykinin, reference compound] (H-RPPGFSPFR-OH) |  |  |  |  |  |  |  |  |  |  | pIC50 [1]: 7.80; pIC50 (human recombinant ACE): 5.81; pIC50 (human B1R (B1R-FLAG)): < 5.00
